Test results taken from US20240099989A1, “AGENT FOR PREVENTING OR IMPROVING PERIPHERAL NEUROPATHY” (KINKI UNIVERSITY, priority 2021, published 2024).

How the values were obtained:
[1] = test system: Diabetic Peripheral Neuropathy in a Mouse Induced by Streptozotocin; experiment: Von Frey test (0.16 g filament), diabetic peripheral neuropathy induced by streptozotocin; type: in vivo, C57BL/6J mice; settings: time course
Description: On Day 8 of acclimation, the mice in the group receiving streptozotocin and the group receiving streptozotocin+1 mg/kg xylitol were administered with streptozotocin at a dose of 200 mg/kg. A massive dose of streptozotocin destroys pancreatic cells in the mice. As a result, insulin is no longer secreted, and thus, diabetes can be developed in the mice. This day was designated as the first day of the administration (Day 0). Note that streptozotocin was administered only on the first day of administration. […]
Six to seven-week-old male C57BL/6J mice were used for the tests as with Example 7. All the mice were acclimated for seven days after arrival. Then, the mice were grouped into the following four groups: a control group, a group receiving streptozotocin, a group receiving 1 mg/kg xylitol, and a group receiving streptozotocin+1 mg/kg xylitol. Each group consisted of nine mice.
The mice in the group receiving 1 mg/kg xylitol were orally administered with xylitol at a dose of 1 mg/kg daily from Day 0. The mice in the group receiving streptozotocin+1 mg/kg xylitol were orally administered with xylitol at a dose of 1 mg/kg daily from Day 21 of administration.
The mice in the four groups described in (1) of the present example (Example 8) were placed in a cage, and the avoidance response frequency (score) was measured by pressing a filament with a bending force of 0.16 g against the back of the hind paw. […]
On Day 8 of acclimation, the mice in the group receiving streptozotocin and the group receiving streptozotocin+5 mg/kg D-threitol were administered with streptozotocin at a dose of 200 mg/kg. A massive dose of streptozotocin destroys pancreatic cells in the mice. As a result, insulin is no longer secreted, and thus, diabetes can be developed in the mice. This day was designated as the first day of the administration (Day 0). Note that streptozotocin was administered only on the first day of administration.
The mice in the group receiving 5 mg/kg D-threitol and the group receiving streptozotocin+5 mg/kg D-threitol were orally administered with D-threitol at a dose of 5 mg/kg daily from Day 0. […]
The mice in the group receiving 5 mg/kg D-threitol were orally administered with D-threitol at a dose of 5 mg/kg daily from Day 0. […]
The mice in the four groups described in (1) of the present example (Example 10) were placed in a cage, and the avoidance response frequency (score) was measured by pressing a filament with a bending force of 0.16 g against the back of the hind paw. […]
The mice in the four groups described in (1) of the present example (Example 11) were placed in a cage, and the avoidance response frequency (score) was measured by pressing a filament with a bending force of 0.16 g against the back of the hind paw. […]

[2] = as is well known; except diarrhea no side effects due to overdose observed; cited from earlier work
[3] = streptozotocin 200 mg/kg + 5 mg/kg orally daily from Day 21 (therapy)

Compound	avoidance response score [1, 3]	safety for the human body [2]	avoidance response score ([1]; streptozotocin 200 mg/kg + 1 mg/kg orally daily from Day 21 (therapy))
OC[C@H](O)[C@H](O)[C@H](O)[C@@H](O)CO [L-talitol]	reduced from Day 21 onwards	safe for the human body	–
OC[C@@H](O)[C@H](O)CO [D-threitol]	reduced from Day 24 onwards	safe for the human body	–
OC[C@@H](O)[C@H](O)[C@@H](O)CO [xylitol]	–	safe for the human body	reduced from Day 21 onwards
